Patent publication US4929736A, “Latent isocynate derivatives useful for deactivating enzymes” (Board of Trustees of the Wichita State University, priority 1986, dated 1990)
“Also recorded” adds a separate entry of the source. Like-named read-outs stand apart in the source and are kept apart here.

Legend:
[1] = molecular target: Porcine pancreatic elastase (PPE) (Sus scrofa, UniProt P00772); test: Spectrophotometric assay of PPE inactivation (in vitro); format: biochemical; details: for kinact/KI: Table I azolides, read-out: Porcine pancreatic elastase k3 /Ki
Experimental: The enzyme assays used to evaluate the potency of the inhibitors in vitro were performed as follows: PPE was assayed spectrophotometrically at 347.5 nm with (tert-butoxycarbonyl)-alanyl-p-nitrophenol in 0.05 M phosphate buffer, pH 6.5, 25° C., or by using succinyl-L-trialanyl-p-nitroanilide in 0.1 M Tris buffer, pH 8.0, at 410 nm. HLE was assayed spectrophotometrically at 410 nm with succinyl-L-trialanyl-p-nitroanilide or methoxy succinyl ala-ala-pro-val-p-nitroanilide (As describe by K. Wakajima et al in the J. Biol. Chem, 254, 4027-4032 (1979) and T. Teshima et al, in J. Biol. Chem 257, 5085-5091 (1982). The potency of an inhibitor is determined by obtaining a kinetic determination of the bimolecular rate constant K3 /Ki (or Robsd /[I]). The HLE used in these studies may be obtained from Elastin Products, St. Louis, Mo.) in 0.1 M Tris buffer, pH 8.0.
(§1) The appropriate amount of inhibitor in acetonitrile was mixed with PPE in phosphate buffer solution and placed in a constant temperature bath. Aliquots were withdrawn at different time intervals and transferred to a cuvette containing 100 uL of substrate, 140 uL of acetonitrile, and 2 mL of phosphate buffer, pH 6.5. After incubating for 30 seconds, the absorbance change was monitored for two minutes at 347.5 nm. The inhibitor-to-enzyme ratios varied between 50 and 200, and the incubation intervals were shortened or lengthened depending upon the potency of the inhibitor. Controlled reactions for 100% PPE activity were run in the presence of acetonitrile. A similar procedure was followed for HLE.
(§2) The reaction of an irreversible inhibitor with PPE and HLE may be illustrated by the scheme shown below: [drawing 5] where EI is the noncovalently bound enzyme-inactivator complex and E-I is the final product with the inhibitor covalently bound to the enzyme. The kinetics data were analyzed according to known procedures. The apparent pseudo-first-order inactivation rate constants were determined from the slopes of semilogarithmic plots of enzymatic activity remaining versus time using the following equation: [formula] where Et /EO is the amount of active enzyme remaining after time "t". Inhibition is generally expressed in terms of k3 /Ki, M^-1 s^-1, wherein Ki is the disassociation constant for the enzyme inhibitor complex and k3 is a limiting rate constant for the irreversible loss of enzymatic activity.
Table I below illustrates the inhibition found with assays of nine amino-acid-derived azolides against PPE and HLE.

[2] = molecular target: T1, Human leukocyte elastase (HLE) (Homo sapiens, UniProt P08246); test: Spectrophotometric assay of HLE inactivation (in vitro); format: biochemical
T1 construct: purchased Elastin Products, St. Louis, Mo
T1 sequence (P08246 30-267): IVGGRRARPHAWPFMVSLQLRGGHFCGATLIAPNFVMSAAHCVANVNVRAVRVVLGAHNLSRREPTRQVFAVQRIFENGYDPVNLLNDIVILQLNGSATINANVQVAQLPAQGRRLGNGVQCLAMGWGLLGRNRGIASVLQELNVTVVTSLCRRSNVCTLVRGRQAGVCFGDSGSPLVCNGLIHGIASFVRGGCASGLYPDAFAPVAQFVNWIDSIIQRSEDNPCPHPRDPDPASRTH
Experimental: as §1, with “The inhibitor-to-enzyme ratios varied between 50 and 200, and the incubation intervals were shortened or lengthened depending upon the potency of the inhibitor.” left out
as §2, with “"t".” for “"t". Inhibition is generally expressed in terms of k3 /Ki, M^-1 s^-1, wherein Ki is the disassociation constant for the enzyme inhibitor complex and k3 is a limiting rate constant for the irreversible loss of enzymatic activity.”
The assay procedure used was the procedure identified relative to the tests above in Table I.
(kobsd) were determined by plotting in [E]t /[E]o vs time.

alpha-Chymotrypsin = alpha-Chymotrypsin (Bos taurus, UniProt P00766); test: Inactivation of chymotrypsin; format: biochemical; details: for Inhibition of chymotrypsin (in words): comparable conditions
PPE = details: cited from earlier work; for Irreversible inhibition of PPE (in words): 183rd ACS National Meeting, 1982
[3] = Inactivation of S-ethylcysteine sulfonate salt by oxidants / hydrolysis in buffer; format: physicochemical
Source text: In addition, compound 3, Table VI, was exposed to oxidants in vitro and the rates of its inactivation with chloramine-T and H2 O2 compared to buffer alone are summarized in Table VII below. […] The observed rates of inhibitor inactivation are 6 to 12 fold smaller than the rate at which the inhibitor inactivates the enzyme.

[4] = Table I azolides, read-out: Human leukocyte elastase k3 /Ki

Chain of Porcine pancreatic elastase (PPE) (P00772 27-266): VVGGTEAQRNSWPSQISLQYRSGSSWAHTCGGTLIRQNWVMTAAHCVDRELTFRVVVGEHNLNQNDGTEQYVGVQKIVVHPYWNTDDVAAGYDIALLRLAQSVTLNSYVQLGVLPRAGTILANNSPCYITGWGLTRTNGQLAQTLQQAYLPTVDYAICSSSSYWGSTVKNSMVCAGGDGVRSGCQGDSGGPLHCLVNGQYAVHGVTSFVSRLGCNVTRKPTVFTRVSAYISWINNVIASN

CS(=O)(=O)ON1C(=O)CC(Cc2ccccc2)C1=O (racemic) [BENZYL, OSO2 CH3, (dl)-3-Benzyl-N-(methanesulfonyloxy) succinimide]
Inhibition of PPE (in words) [1]: unaffected | kinact/KI ([2]; Table V, succinimide derivatives, read-out: kobsd /[I], inhibition of leukocyte elastase): 1170 M⁻¹ s⁻¹ | kinact/KI (alpha-Chymotrypsin; Table V footnote a, read-out: kobsd /[I], alpha-Chymotrypsin): 9000 M⁻¹ s⁻¹ | Inhibition of chymotrypsin (in words) (alpha-Chymotrypsin): efficiently inactivated

CCCCC(NC(=O)n1ccnc1)C(=O)OC (racemic) [Compound 9, Table I]
kinact/KI [1]: 2.2 M⁻¹ s⁻¹ | kinact/KI [2, 4]: 167 M⁻¹ s⁻¹

CCCC(NC(=O)n1ccnc1)C(=O)OC (racemic) [DL-norvaline methyl ester derivative]
Irreversible inhibition of PPE (in words) (PPE): Particularly active

COC(=O)CNC(=O)n1ccnc1 [Compound 1]
Inhibition of PPE (in words) [1]: failed to deactivate | Inhibition of HLE (in words) [2]: failed to deactivate

COC(=O)[C@H](C)NC(=O)n1ccnc1 [Compound 2]
Inhibition of PPE (in words) [1]: marginal inhibitory activity | Inhibition of HLE (in words) [2]: marginal inhibitory activity

COC(=O)[C@@H](NC(=O)n1ccnc1)C(C)C [Compound 3, Table I]
kinact/KI [1]: 2.8 M⁻¹ s⁻¹ | Irreversible inhibition of PPE (in words) (PPE): Particularly active | kinact/KI [2, 4]: 193 M⁻¹ s⁻¹ | Inhibition of HLE (in words) ([2]; listed as L-valine azolide): highly effective

CCSC[C@H](NC(=O)S(=O)(=O)O)C(=O)OC [Compound 3, Table VI]
kinact/KI ([2]; Table VI, sulfur-containing amino acid esters, read-out: kobsd /[I], inhibition of HLE): 1800 M⁻¹ s⁻¹ | kobsd, inactivation of inhibitor ([3]; Chloramine T (0.06 mM), first line): 6.6 × 10^-4 sec ^-1 | kobsd, inactivation of inhibitor ([3]; Chloramine T (0.06 mM), second line): 3.2 × 10^-3 sec ^-1 | kobsd, inactivation of inhibitor ([3]; H2O2 (1 mM)): 1.2 × 10^-3 sec ^-1 | kobsd, inactivation of inhibitor ([3]; Triss buffer, pH 8.0 (0.2 M)): 5.8 × 10^-4 sec ^-1 | half life of hydrolysis in buffer solution ([3]; buffer, pH 8.0): twenty | scavenging of oxidants (in words) ([3]; chloramine-T and H2O2): scavenged by the inhibitor in a time dependent and efficient fashion | half life with addition of oxidants (in words) ([3]; chloramine-T, H2O2): shorter half lives

COC(=O)[C@@H](NC(=O)n1ccnc1)C(C)C [Compound 3]
Inhibition of PPE (in words) [1]: poor inhibitor; also recorded: little for PPE | Inhibition of HLE (in words) [2]: excellent inhibitor; also recorded: avidity for HLE

CCC[C@H](NC(=O)S(=O)(=O)O)C(=O)OC [Compound 4, Table II]
Inhibition of PPE (in words) [1]: no effect | kinact/KI ([2]; Table II monopotassium sulfonate salts, read-out: k2 /Ki (HLE)): 860 M⁻¹ s⁻¹ | Inhibition of HLE (in words) ([2]; listed as L-norvaline sulfonate salt): very potent inhibitors; also recorded: effective inhibitors | Inhibition of chymotrypsin (in words) (alpha-Chymotrypsin): no effect

COC(=O)[C@H](NC(=O)n1ccnc1)C(C)C [Compound 4, Table I]
Irreversible inhibition of PPE (in words) (PPE): marginal activity

COC(=O)[C@H](NC(=O)n1ccnc1)C(C)C [Compound 4]
Inhibition of PPE (in words) [1]: no effect | Inhibition of HLE (in words) [2]: no effect

CCC[C@H](NC(=O)n1ccnc1)C(=O)OC [Compound 5]
Inhibition of PPE (in words) [1]: little for PPE | kinact/KI [1]: 6.3 M⁻¹ s⁻¹ | Inhibition of HLE (in words) [2]: effective inhibitors; also recorded: avidity for HLE | kinact/KI [2, 4]: 500 M⁻¹ s⁻¹

COC(=O)[C@H](CC(C)C)NC(=O)n1ccnc1 [Compound 7, Table I]
kinact/KI [1]: 0.5 M⁻¹ s⁻¹ | Inhibition of HLE (in words) [2]: highly effective

CCC(C)[C@H](NC(=O)n1ccnc1)C(=O)OC (stereo partly shown) [Compound 8, Table I]
kinact/KI [1]: 1 M⁻¹ s⁻¹

CCCCC(NC(=O)n1ccnc1)C(=O)OC (stereo not shown) [Compound 9]
Inhibition of PPE (in words) [1]: little for PPE | Inhibition of HLE (in words) [2]: effective inhibitors; also recorded: avidity for HLE

COC(=O)[C@H](CCSC)NC(=O)n1ccnc1 [N-(1H-imidazol-1-ylcarbonyl)-methionine methyl ester]
Inhibition of PPE (in words) [1]: unaffected | Inhibition of HLE (in words) [2]: remarkable specificity and high potency | Inhibition of HLE (in words) ([2]; listed as methionine azolide): highly effective

CCOC(=O)CNC(=O)n1ccnc1 [glycine ethel ester derivative]
Irreversible inhibition of PPE (in words) (PPE): inactive

CCCCNC(=O)n1ccnc1 [n-butyl derivative]
Inhibition of PPE (in words) (PPE; Biochem. Biophys. Res. Commun. report (1980)): particularly capable of binding to the active site of the enzyme
